The target in one data set is LSD1 (Homo sapiens, UniProt O60341). Kind of data set: LSD1 inhibitor screening assay kit.
The target in the next data set is T1, MAO-A (Homo sapiens, UniProt P21397).
T1 construct: purchased Promega
T1 sequence (P21397 1-527): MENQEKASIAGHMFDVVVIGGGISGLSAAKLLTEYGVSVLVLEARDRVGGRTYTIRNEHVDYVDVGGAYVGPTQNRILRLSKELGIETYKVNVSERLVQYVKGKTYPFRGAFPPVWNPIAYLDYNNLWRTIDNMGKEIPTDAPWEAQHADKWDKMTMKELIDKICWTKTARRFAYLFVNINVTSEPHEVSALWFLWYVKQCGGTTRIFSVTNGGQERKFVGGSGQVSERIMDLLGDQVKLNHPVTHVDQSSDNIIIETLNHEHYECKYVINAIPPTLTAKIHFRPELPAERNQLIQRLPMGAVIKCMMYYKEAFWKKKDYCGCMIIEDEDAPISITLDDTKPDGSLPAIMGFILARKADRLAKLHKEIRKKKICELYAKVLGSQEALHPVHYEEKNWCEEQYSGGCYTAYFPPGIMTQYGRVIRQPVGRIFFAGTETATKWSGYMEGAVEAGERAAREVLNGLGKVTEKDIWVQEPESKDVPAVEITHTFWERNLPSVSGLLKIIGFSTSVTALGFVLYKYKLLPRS
Kind of data set: MAO-A/B biochemical kit, MAO-A.

In the next data set the target is T2, MAO-B (Homo sapiens, UniProt P27338).
T2 construct: purchased Promega
T2 sequence (P27338 1-520): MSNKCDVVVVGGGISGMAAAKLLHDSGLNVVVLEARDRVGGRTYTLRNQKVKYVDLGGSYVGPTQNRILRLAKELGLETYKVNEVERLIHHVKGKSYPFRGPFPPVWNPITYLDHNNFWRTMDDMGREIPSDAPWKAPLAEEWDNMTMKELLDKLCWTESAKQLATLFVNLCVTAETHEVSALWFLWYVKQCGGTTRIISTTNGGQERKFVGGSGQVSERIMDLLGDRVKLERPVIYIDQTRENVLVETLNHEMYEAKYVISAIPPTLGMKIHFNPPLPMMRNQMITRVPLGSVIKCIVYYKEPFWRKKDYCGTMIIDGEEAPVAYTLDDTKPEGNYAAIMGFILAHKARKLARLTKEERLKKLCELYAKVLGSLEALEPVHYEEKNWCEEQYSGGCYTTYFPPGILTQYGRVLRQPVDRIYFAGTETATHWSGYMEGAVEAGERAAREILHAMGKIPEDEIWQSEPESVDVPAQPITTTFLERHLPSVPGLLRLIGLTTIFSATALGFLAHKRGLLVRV
As to the kind of experiment: MAO-A/B biochemical kit, MAO-B.

The next data set has as its system H1975. Further details: method as in PMID 30992165. The following applies: cited from earlier work.
The test system of data set [1] is Hela. Further details: method as in PMID 30992165. The following applies: cited from earlier work.
The test system of another data set is NAMPT. Further details: method as in PMID 30992165. Conditions: cited from earlier work.
A further data set has as its system DU145. Further details: method as in PMID 30992165. The following applies: cited from earlier work.
A further data set deals with PC-3 cells. Further details: method as in PMID 28872607. The following applies: read-out: IC50 against PC-3 cells; cited from earlier work.
In the next data set the test system is HCT-116. Also noted: method as in PMID 31181480. The following applies: read-out: IC50 against HCT-116; cited from earlier work.
The subject of data set [2] is Hela. Also noted: method as in PMID 31181480. The following applies: read-out: IC50 against Hela; cited from earlier work.
A further data set concerns RKO. Further details: method as in PMID 31181480. The following applies: read-out: IC50 against RKO; cited from earlier work.
The next data set relates to A2780. Also noted: method as in PMID 31181480. Conditions: read-out: IC50 against A2780; cited from earlier work.

Read-outs that look alike come from different tables or passages of the source.

Description for LSD1: (§1) LSD1 inhibitor screening assay kit was purchased to evaluate for the enzyme inhibition activity of all synthetic compounds (Cayman Chemical, Fort Annapolis, MI). The MAO-A/B biochemical kit was purchased to explore the inhibitory activity against MAO-A and MAO-B (Promega, Madison, WI). […] The signal of each well was read by a GloMax Explorer (Beijing Yuanpinghao Biotechnology Co., Ltd, Beijing, China).
Description for MAO-B: as §1

For the compound `COc1cc(N(CCCCSC(=S)N2CCN(C)CC2)S(=O)(=O)c2cccc3cccnc23)cc(OC)c1OC` [Compound L7, 4-(N-(3,4,5-trimethoxyphenyl)quinoline-8-sulfonamido)butyl-4-methylpiperazine-1-carbodithioate], the IC50 (usually the midpoint of a concentration-inhibition curve) was 0.73 ± 0.08 µM on LSD1 (read-out: IC50 (μM) LSD1), over 120 µM against MAO-A and over 120 µM on MAO-B.

For `O=S(=O)(Nc1cccc2cccnc12)c1ccccc1` [Compound J4, N-(quinolin-8-yl)benzenesulphonamide], the IC50 was 82.5 ± 3.38 µM on LSD1, over 120 µM on MAO-A and over 120 µM at MAO-B.

For the compound `COc1cc(N(CCBr)S(=O)(=O)c2cccc3cccnc23)cc(OC)c1OC` [Compound K1, N-(2-bromoethyl)-N-(3,4,5-trimethoxyphenyl)quinoline-8-sulphonamide], the melting point (as a rule, the temperature of the solid-liquid transition) was 158 to 160 °C. In addition, at LSD1, the midpoint of inhibition, the IC50, lay at 14.8 ± 2.04 µM. The IC50 at MAO-A was over 120 µM. Also, the concentration for half-maximal inhibition (IC50) against MAO-B is over 120 µM.

For `COc1cc(N(CCCSC(=S)N2CCN(CCO)CC2)S(=O)(=O)c2cccc3cccnc23)cc(OC)c1OC` [Compound L4, 3-(N-(3,4,5-trimethoxyphenyl)quinoline-8-sulfonamido)propyl-4–(2-hydroxyethyl)piperazine-1-carbodithioate], the values for the half-inhibitory concentration (IC50) at LSD1 (read-out: IC50 (μM) LSD1), at MAO-A and against MAO-B were 0.67 ± 0.1 µM, over 120 µM and over 120 µM, respectively.

As to `Cc1ccccc1NS(=O)(=O)c1cccc(CCCCCCNC(=O)/C=C/c2cccnc2)c1` [Compound 4], the “antiproliferative activity against H1975 cells” value with H1975 is recorded as “single-digit nanomolar”. In addition, the “antiproliferative activity against Hela cells” value in the data set with Hela [1] is given as “single-digit nanomolar”. Moreover, the IC50 in the data set on NAMPT is 0.00508 µM. The “antiproliferative activity against DU145 cells” value with DU145 is on record as “single-digit nanomolar”.

As to `COc1ccc(S(=O)(=O)Nc2cccc3cccnc23)cc1OC` [Compound J1, 3,4-Dimethoxy-N-(quinolin-8-yl)benzenesulphonamide], the IC50 on LSD1 was 33.8 ± 2.04 µM; at MAO-A, over 120 µM; against MAO-B it was over 120 µM.

As to `Cc1ccc(S(=O)(=O)NCc2cn(Cc3cccc(Oc4ccccc4)c3)nn2)cc1` [Compound 5], in the data set with PC-3 cells, the IC50 is 4.08 µM.

Consider `COc1cc(N(CCCSC(=S)N2CCN(C(=O)OC(C)(C)C)CC2)S(=O)(=O)c2cccc3cccnc23)cc(OC)c1OC` [Compound L2, Tert-butyl-4-(((3-(N-(3,4,5-trimethoxyphenyl)quinoline-8-sulfonamido)propyl)thio)carbonothioyl)piperazine-1-carboxylate], for which the melting point lay in the range of 130 to 132 °C. The half-inhibitory concentration (IC50) on LSD1 is 1.39 ± 0.14 µM. At MAO-A, this compound yielded an IC50 of over 120 µM. Moreover, on MAO-B, the 50% inhibitory concentration (IC50) was over 120 µM.

For `CCN1CCN(C(=S)SCCCCN(c2cc(OC)c(OC)c(OC)c2)S(=O)(=O)c2cccc3cccnc23)CC1` [Compound L5, 4-(N-(3,4,5-trimethoxyphenyl)quinoline-8-sulfonamido)butyl-4-ethylpiperazine-1-carbodithioate], the “LSD1 activity loss, hydroxyethyl group replaced with ethyl group” value on LSD1 (compound L8 versus L5) was “over 80 fold”. Further, the 50% inhibitory concentration (IC50) on LSD1 (read-out: IC50 (μM) LSD1) was 4.92 ± 0.13 µM; against MAO-A it was over 120 µM; at MAO-B, over 120 µM.

The compound `COc1cc(N(CCCCSC(=S)N2CCN(C(=O)OC(C)(C)C)CC2)S(=O)(=O)c2cccc3cccnc23)cc(OC)c1OC` [Compound L6, Tert-butyl-4-(((4-(N-(3,4,5-trimethoxyphenyl)quinoline-8-sulfonamido)butyl)thio)carbonothioyl)piperazine-1-carboxylate] came in with a melting point of 98 to 100 °C. For the same compound, the midpoint of inhibition against LSD1, the IC50, lay at 0.23 ± 0.05 µM. On MAO-A, the IC50 is over 120 µM. The IC50 against MAO-B is over 120 µM.

As for `Cc1ccc(S(=O)(=O)Nc2cccc3cccnc23)cc1` [Compound J5, 4-Methyl-N-(quinolin-8-yl)benzenesulphonamide], the IC50 against LSD1 is 74.5 ± 2.67 µM; on MAO-A, over 120 µM; against MAO-B it was over 120 µM.

On to `COc1cc(NS(=O)(=O)c2cccc3cccnc23)cc(OC)c1OC` [Compound J7, N-(3,4,5-trimethoxyphenyl)quinoline-8-sulphonamide], for which the results for the half-maximal inhibitory concentration (IC50) against LSD1, on MAO-A and at MAO-B were 11.6 ± 1.92 µM, over 120 µM and over 120 µM, respectively.

With `O=S(=O)(Nc1cccc2cccnc12)c1ccc(Br)cc1` [Compound J6, 4-Bromo-N-(quinolin-8-yl)benzenesulphonamide], the melting point lay within 192 to 194 °C. In addition, it took 61.8 ± 5.64 µM to reach half-maximal inhibition at LSD1 (IC50). This compound also displayed an IC50 against MAO-A of over 120 µM. Moreover, on MAO-B, the IC50 was over 120 µM.

As to `COc1cc(N(CCCBr)S(=O)(=O)c2cccc3cccnc23)cc(OC)c1OC` [Compound K2, N-(3-bromopropyl)-N-(3,4,5-trimethoxyphenyl)quinoline-8-sulphonamide], the 50% inhibitory concentration (IC50) against LSD1 is 9.63 ± 1.26 µM; against MAO-A it was over 120 µM; against MAO-B, over 120 µM.

Take `N[C@H]1CC[C@H](N[C@@H]2C[C@H]2c2ccccc2)CC1` [ORY-1001, reference compound]: on MAO-A, the IC50 was over 120 µM.

In the case of `COc1ccc(S(=O)(=O)Nc2cccc3cccnc23)cc1` [Compound J2, 4-Methoxy-N-(quinolin-8-yl)benzenesulphonamide], the results for the half-maximal inhibitory concentration (IC50) on LSD1, on MAO-A and at MAO-B were 45.6 ± 1.12 µM, over 120 µM and over 120 µM, respectively.

Take `CC(C)(C)c1ccc(S(=O)(=O)Nc2cccc3cccnc23)cc1` [Compound J3, 4-(Tert-butyl)-N-(quinolin-8-yl)benzenesulphonamide]: the IC50 against LSD1 was 61.9 ± 2.46 µM; at MAO-A it was over 120 µM; against MAO-B, over 120 µM.

In the case of `COc1cc(N(CCCCBr)S(=O)(=O)c2cccc3cccnc23)cc(OC)c1OC` [Compound K3, N-(4-bromobutyl)-N-(3,4,5-trimethoxyphenyl)quinoline-8-sulphonamide], the melting point fell in the range of 103 to 104 °C. The IC50 against LSD1 was 6.32 ± 0.77 µM. On MAO-A, this compound yielded an IC50 of over 120 µM. On MAO-B, this compound returned a half-maximal inhibitory concentration (IC50) of over 120 µM.

For the compound `COc1cccc(Nc2ccnc3cc(OCCCc4ccccc4)ccc23)c1` [Compound 8], the IC50 in the data set with HCT-116 is 2.56 µM; in the data set on Hela [2], 2.71 µM; in the data set on RKO it was 3.67 µM; in the data set with A2780, 3.46 µM.

Regarding `COc1cc(N(CCSC(=S)N2CCN(C(=O)OC(C)(C)C)CC2)S(=O)(=O)c2cccc3cccnc23)cc(OC)c1OC` [Compound L1, Tert-butyl-4-(((2-(N-(3,4,5-trimethoxyphenyl)quinoline-8-sulfonamido)ethyl)thio)carbonothioyl)piperazine-1-carboxylate], the melting point lay within 121 to 123 °C. This compound also yielded a 50% inhibitory concentration (IC50) against LSD1 of 2.73 ± 0.29 µM. The compound further came in with an IC50 on MAO-A of over 120 µM. Further, the IC50 at MAO-B was over 120 µM.

On to `COc1cc(N(CCSC(=S)N2CCN(CCO)CC2)S(=O)(=O)c2cccc3cccnc23)cc(OC)c1OC` [Compound L3, 2-(N-(3,4,5-trimethoxyphenyl)quinoline-8-sulfonamido)ethyl-4–(2-hydroxyethyl)piperazine-1-carbodithioate], for which the figures for the IC50 on LSD1 (read-out: IC50 (μM) LSD1), on MAO-A and at MAO-B were 1.85 ± 0.07 µM, over 120 µM and over 120 µM, respectively.

The record behind these values is PMC8973347, “Discovery of novel sulphonamide hybrids that inhibit LSD1 against bladder cancer cells” (Journal of Enzyme Inhibition and Medicinal Chemistry, 2022).
